Results taken from patent US6440999B1, “Intimal thickening inhibitory agent” (Chugai Seiyaku Kabushiki Kaisha, priority 1995, dated 2002).
Marks after values point to notes of the source that are not given here.

Experiments:
[1] = system: A7r5 cells derived from the aorta of a rat; experiment: Inhibition of serum-stimulated proliferation of vascular smooth muscle cells, BrdU uptake (EIA); assay type: cell-based; conditions: for Absorbance (difference between 405 nm and 492 nm), BrdU uptake: n = 3, mean ± SD
Description: In order to assess the inhibitory effect of a compound of the present invention on serum-stimulated pro-liferation of vascular smooth muscle cells in vitro, the compound obtained in Example 36 was tested using A7r5 cells derived from the aorta of a rat (ATCC-CRL-1444).
Using DMEM medium containing 10% FBS, the cells were placed on 96-well microtiter plates with 5×10^3 cells/0.2 ml/well and then incubated. The medium was exchanged for 2% FBS-containing DMEM medium on the third day and then for 0.2% FBS-containing DMEM medium on the fourth day from the start of the incubation. After 48-hour incubation in the 0.2% FBS-containing DMEM medium, the medium was removed, 0.1 ml of DMEM medium and the test compound were added, and the cells were stimulated with serum (2% FBS) to proliferate. The test compound was added to the wells in the form of a solution or suspension in ethanol in an amount of 0.5 μl/well to final compound concentrations indicated in Table 1 below and the resultant ethanol concentration of 0.5% in each well. BrdU was pulsed to the wells from the 16th to 38th hours or from the 38th to 64th hours after the stimulation to a final concentration of 10 μM, and the uptake of BrdU into DNA was evaluated as an indication of cell proliferation. The BrdU uptake was measured by means of an EIA kit containing an anti-BrdU antibody (5-Bromo-2′-deoxy-uridine Labeling and Detection Kit III, available from Bohringer Mannheim Biochemica).

[2] = system: A7r5 cells derived from the aorta of a rat; experiment: Inhibition of serum-stimulated proliferation of vascular smooth muscle cells, acid phosphatase activity; assay type: cell-based; conditions: 48 hours after 2% FBS stimulation, n = 3, mean ± SD; for Acid Phosphatase Activity Absorbance (OD405): control 0.867 ± 0.089
Description: In order to assess the inhibitory effect of the compounds of the present invention on serum-stimulated proliferation of vascular smooth muscle cells in vitro, the compounds of Examples 1, 4, 20, 22, 27, 31, 36, 50, 52, and 58 were tested using A7r5 cells derived from the aorta of a rat (ATCC-CRL-1444).
Using DMEM medium containing 10% FBS, the cells were placed on 96-well microtiter plates with 5×10^3 cells/0.2 ml/ well and then incubated. The medium was exchanged for 2% FBS-containing DMEM medium on the third day and then for 0.2% FBS-containing DMEM medium on the fourth day from the start of the incubation. After 24-hour incubation in the 0.2% FBS-containing DMEM medium, the test compound was added. Each of the test compounds were added to the wells in the form of a solution or suspension in ethanol in an amount of 1 μl/well to final compound concentrations indicated in Table 3 below and the resultant ethanol concentration of 0.5% in each well. After additional 24-hour incubation, the medium was removed, and 0.2 ml of DMEM medium and the test compound were added thereto again, and the cells were stimulated by serum (2% FBS). Forty-eight hours after the stimulation, the acid phosphatase activity in the wells was measured by means of a kit (Abacus Cell Proliferation Kit, available from Clontech Lab. Inc. CA, U.S.A.) and evaluated as an indication of cell proliferation.

[3] = system: rabbit balloon injury models; experiment: In vivo effect in intimal thickening model (1), rabbit balloon injury
Description: In order to assess the inhibitory effect of the compound of the present invention on intimal thickening in vivo, the compound of Example 36 was tested using rabbit balloon injury models.
(§1) Cholesterol-fed rabbits in groups of eight (JW: CSK male, 11-week-old) were used to prepare rabbit balloon injury models. Briefly, rabbits were fed with a high cholesterol diet (cholesterol content: 1%) for 2 weeks before balloon treatment. The animals were balloon-treated with a balloon catheter (3 French, available from Baxter) under anesthesia to peel the aortic intima 5 times. The animals were orally administered with the compound which was suspended in a 1% carboxymethyl cellulose (CMC) solution (200 mg/kg). On the other hand, control animals were orally administered with a 1% CMC solution without the compound. The administrations were performed once a day from 1 week before the balloon treatment until the day before the dissection for evaluation.
After four weeks from the balloon treatment, specimens were taken from the aorta, stained with Elastica van Geison, and analyzed under an optical microscope. The image was processed to measure the thickness and area of the thickened intima. Averages of the thickness and area were obtained for each individual animal. The animals which died due to the operation and those having a serum cholesterol level of 3500 mg/dl or higher were excluded from the measurement. The number of animals used for the evaluation was 5 or 6 per group.

[4] = system: rabbit balloon injury models; experiment: In vivo effect in intimal thickening model (2), rabbit balloon injury
Description: In order to assess the inhibitory effect of the compound of the present invention on intimal thickening in vivo, the compound of Example 36 was tested using rabbit balloon injury models that were different from those used in Test Example 4 in week-age. Further, the effect was compared with that of Probucol which was reported to have an inhibitory effect on intimal thickening in balloon injury models (see Proc. Natl. Acad. Sci., U.S.A., 89, pp 11312-11316 (1992)).
as §1, with “seven” for “eight”, “15-week-old)” for “11-week-old)”, “(4” for “(3”, “CMC” for “carboxymethyl cellulose (CMC)”, “evaluation. In order to evaluate the degree of balloon injury, a balloon-nontreated group (3 animals) was prepared.” for “evaluation.”
After four weeks from the balloon treatment, specimens were taken from the aorta, stained with Elastica van Geison, and analyzed under an optical microscope. The image was processed to measure the thickness and area of the thickened intima. Averages of the thickness and area were obtained for each individual animal. The animals which died after the operation and those having a serum cholesterol level of 3500 mg/dl or higher were excluded from the measurement. The number of animals used for the evaluation was 4 or 5 per group.

[5] = both intimal thickness and intimal area, 200 mg/kg oral

SMILES: CCCCCC1(CCCCC)Cc2c(cc(C(C)(C)C)c(O)c2C(C)(C)C)O1 [Example 36, 4,6-Di-t-butyl-2,2-di-n-pentyl-5-hydroxy-2,3-dihydrobenzofuran]
- Absorbance (difference between 405 nm and 492 nm), BrdU uptake ([1]; 10 μM, BrdU pulse 16-38 hrs. after 2% FBS stimulation, control 0.433 ± 0.008): 0.397 ± 0.054
- Absorbance (difference between 405 nm and 492 nm), BrdU uptake ([1]; 10 μM, BrdU pulse 38-64 hrs. after 2% FBS stimulation, control 0.436 ± 0.060): 0.195 ± 0.017
- Absorbance (difference between 405 nm and 492 nm), BrdU uptake ([1]; 30 μM, BrdU pulse 16-38 hrs. after 2% FBS stimulation, control 0.433 ± 0.008): 0.362 ± 0.026
- Absorbance (difference between 405 nm and 492 nm), BrdU uptake ([1]; 30 μM, BrdU pulse 38-64 hrs. after 2% FBS stimulation, control 0.436 ± 0.060): 0.085 ± 0.006
- Absorbance (difference between 405 nm and 492 nm), BrdU uptake ([1]; 100 μM, BrdU pulse 16-38 hrs. after 2% FBS stimulation, control 0.433 ± 0.008): 0.290 ± 0.031
- Absorbance (difference between 405 nm and 492 nm), BrdU uptake ([1]; 100 μM, BrdU pulse 38-64 hrs. after 2% FBS stimulation, control 0.436 ± 0.060): 0.049 ± 0.006
- Inhibition of serum-stimulated proliferation of vascular smooth muscle cells (in words) ([1]; BrdU uptake, 10-100 μM): inhibits the serum-stimulated proliferation of vascular smooth muscle cells dose-dependently
- Acid Phosphatase Activity Absorbance (OD405) ([2]; 10 μM): 0.733 ± 0.060
- Acid Phosphatase Activity Absorbance (OD405) ([2]; 100 μM): 0.539 ± 0.055
- activity at 10 µM ([2]; Rattus norvegicus, A7R5, 10 μM, control 100 ± 10): 84 ± 7%
- activity at 100 µM ([2]; Rattus norvegicus, A7R5, 100 μM, control 100 ± 10): 62 ± 6%
- Inhibitory effect on intimal thickening (in words) [3, 5]: significant inhibitory effect on intimal thickening
- Area of Intima ([3]; cholesterol-fed rabbits, 11-week-old, 200 mg/kg oral once a day, four weeks after balloon treatment, control 0.26 ± 0.03, mean ± SD): 0.11 ± 0.08** mm^2
- Thickness of Intima ([3]; cholesterol-fed rabbits, 11-week-old, 200 mg/kg oral once a day, four weeks after balloon treatment, control 103 ± 12, mean ± SD): 45 ± 31 μm
- Inhibitory effect on intimal thickening compared with Probucol (in words) ([4]; 200 mg/kg oral): higher than that of Probucol
- Inhibitory effect on intimal thickening (in words) [4, 5]: significant inhibitory effect on intimal thickening
- Area of Intima ([4]; cholesterol-fed rabbits, 15-week-old, 200 mg/kg oral once a day, four weeks after balloon treatment, control 1.32 ± 0.22, mean ± SD): 0.81 ± 0.22 mm²
- Thickness of Intima ([4]; cholesterol-fed rabbits, 15-week-old, 200 mg/kg oral once a day, four weeks after balloon treatment, control 119 ± 19, mean ± SD): 76 ± 16 μm
